Measurements reported in PubChem BioAssay (NCI).
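Exposure lasted 48 hours, with cells grown in 96-well plates and compounds tested at five concentrations. At the GI50, growth is halved. TGI denotes the concentration required for complete inhibition of growth.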

Assays:
Assay in all cases: NCI-60 cell line screen, 48 h; in the data active = GI50 below about 0.43 µM; inactive = the rest
SK-OV-3 ovarian = test system: SK-OV-3 ovarian
DLD-1 colon = test system: DLD-1 colon
SK-MEL-2 melanoma = test system: SK-MEL-2 melanoma
UO-31 renal = test system: UO-31 renal
SK-MEL-5 melanoma = test system: SK-MEL-5 melanoma
OVCAR-5 ovarian = test system: OVCAR-5 ovarian
OVCAR-4 ovarian = test system: OVCAR-4 ovarian
A549 NSCLC = test system: A549 NSCLC
TK-10 renal = test system: TK-10 renal
KM20L2 colon = test system: KM20L2 colon
M19-MEL melanoma = test system: M19-MEL melanoma
CCRF-CEM leukemia = test system: CCRF-CEM leukemia
K-562 leukemia = test system: K-562 leukemia
COLO 205 colon = test system: COLO 205 colon
MOLT-4 leukemia = test system: MOLT-4 leukemia
HCT-15 colon = test system: HCT-15 colon
HOP-62 NSCLC = test system: HOP-62 NSCLC
DMS 114 small cell lung = test system: DMS 114 small cell lung
HOP-92 NSCLC = test system: HOP-92 NSCLC
SF-295 CNS = test system: SF-295 CNS
ACHN renal = test system: ACHN renal
SK-MEL-28 melanoma = test system: SK-MEL-28 melanoma
M14 melanoma = test system: M14 melanoma
RXF 393 renal = test system: RXF 393 renal
NCI-H226 lung = test system: NCI-H226 lung
LXFL 529 NSCLC = test system: LXFL 529 NSCLC
OVCAR-8 ovarian = test system: OVCAR-8 ovarian
NCI-H460 lung = test system: NCI-H460 lung
CAKI-1 renal = test system: CAKI-1 renal
XF 498 CNS = test system: XF 498 CNS
786-0 renal = test system: 786-0 renal
U251 CNS = test system: U251 CNS
HOP-18 NSCLC = test system: HOP-18 NSCLC
SR leukemia = test system: SR leukemia
OVCAR-3 ovarian = test system: OVCAR-3 ovarian
HL-60(TB) leukemia = test system: HL-60(TB) leukemia
KM12 colon = test system: KM12 colon
SW-620 colon = test system: SW-620 colon
SN12C renal = test system: SN12C renal
NCI-H23 lung = test system: NCI-H23 lung
HT29 colon = test system: HT29 colon
SF-539 CNS = test system: SF-539 CNS
EKVX NSCLC = test system: EKVX NSCLC
IGROV1 ovarian = test system: IGROV1 ovarian
RPMI-8226 leukemia = test system: RPMI-8226 leukemia
MALME-3M melanoma = test system: MALME-3M melanoma
SNB-19 CNS = test system: SNB-19 CNS
HCT-116 colon = test system: HCT-116 colon
SF-268 CNS = test system: SF-268 CNS
HCC-2998 colon = test system: HCC-2998 colon
UACC-62 melanoma = test system: UACC-62 melanoma
UACC-257 melanoma = test system: UACC-257 melanoma
LOX IMVI melanoma = test system: LOX IMVI melanoma
A498 renal = test system: A498 renal
NCI-H522 lung = test system: NCI-H522 lung
SNB-75 CNS = test system: SNB-75 CNS
RXF-631 renal = test system: RXF-631 renal
DMS 273 small cell lung = test system: DMS 273 small cell lung

CC(C)(C)C(=O)[CH-]C(=O)C(F)(F)C(F)(F)C(F)(F)F.CC(C)(C)C(=O)[CH-]C(=O)C(F)(F)C(F)(F)C(F)(F)F.[O-]CC1OC(O)C(O)C(O)C1O.[O-]CC1OC(O)C(O)C(O)C1O.[Ti+4]
inactive: GI50 (DLD-1 colon) 67.4 µM | GI50 (KM20L2 colon) > 100 µM | GI50 (M19-MEL melanoma) > 100 µM | GI50 (DMS 114 small cell lung) > 100 µM | GI50 (LXFL 529 NSCLC) 71.4 µM | GI50 (XF 498 CNS) > 100 µM | GI50 (HOP-18 NSCLC) > 100 µM | GI50 (HCC-2998 colon) > 100 µM
96.9 µM: TGI (HOP-92 NSCLC)
> 100 µM: TGI (SK-OV-3 ovarian) | TGI (DLD-1 colon) | TGI (SK-MEL-2 melanoma) | TGI (UO-31 renal) | TGI (SK-MEL-5 melanoma) | TGI (OVCAR-5 ovarian) | TGI (OVCAR-4 ovarian) | TGI (A549 NSCLC) | TGI (TK-10 renal) | TGI (KM20L2 colon) | TGI (M19-MEL melanoma) | TGI (CCRF-CEM leukemia) | TGI (K-562 leukemia) | TGI (COLO 205 colon) | TGI (MOLT-4 leukemia) | TGI (HCT-15 colon) | TGI (HOP-62 NSCLC) | TGI (DMS 114 small cell lung) | TGI (SF-295 CNS) | TGI (ACHN renal) | TGI (SK-MEL-28 melanoma) | TGI (M14 melanoma) | TGI (RXF 393 renal) | TGI (NCI-H226 lung) | TGI (LXFL 529 NSCLC) | TGI (OVCAR-8 ovarian) | TGI (NCI-H460 lung) | TGI (CAKI-1 renal) | TGI (XF 498 CNS) | TGI (786-0 renal) | TGI (U251 CNS) | TGI (HOP-18 NSCLC) | TGI (SR leukemia) | TGI (OVCAR-3 ovarian) | TGI (HL-60(TB) leukemia) | TGI (KM12 colon) | TGI (SW-620 colon) | TGI (SN12C renal) | TGI (NCI-H23 lung) | TGI (HT29 colon) | TGI (SF-539 CNS) | TGI (EKVX NSCLC) | TGI (IGROV1 ovarian) | TGI (RPMI-8226 leukemia) | TGI (MALME-3M melanoma) | TGI (SNB-19 CNS) | TGI (HCT-116 colon) | TGI (SF-268 CNS) | TGI (HCC-2998 colon) | TGI (UACC-62 melanoma) | TGI (UACC-257 melanoma) | TGI (LOX IMVI melanoma)

O=C1CCC(=O)C(C(=O)CCC(=O)Nc2cccc(Cl)c2)C1 (centres undefined)
> 100 µM: TGI (SK-OV-3 ovarian) | TGI (DLD-1 colon) | TGI (A498 renal) | TGI (UO-31 renal) | TGI (SK-MEL-5 melanoma) | TGI (OVCAR-5 ovarian) | TGI (A549 NSCLC) | TGI (TK-10 renal) | TGI (KM20L2 colon) | TGI (M19-MEL melanoma) | TGI (CCRF-CEM leukemia) | TGI (K-562 leukemia) | TGI (COLO 205 colon) | TGI (MOLT-4 leukemia) | TGI (NCI-H522 lung) | TGI (HCT-15 colon) | TGI (HOP-62 NSCLC) | TGI (HOP-92 NSCLC) | TGI (SF-295 CNS) | TGI (ACHN renal) | TGI (M14 melanoma) | TGI (RXF 393 renal) | TGI (NCI-H226 lung) | TGI (LXFL 529 NSCLC) | TGI (OVCAR-8 ovarian) | TGI (NCI-H460 lung) | TGI (CAKI-1 renal) | TGI (XF 498 CNS) | TGI (786-0 renal) | TGI (U251 CNS) | TGI (HOP-18 NSCLC) | TGI (SR leukemia) | TGI (OVCAR-3 ovarian) | TGI (SNB-75 CNS) | TGI (HL-60(TB) leukemia) | TGI (KM12 colon) | TGI (SW-620 colon) | TGI (SN12C renal) | TGI (NCI-H23 lung) | TGI (HT29 colon) | TGI (SF-539 CNS) | TGI (EKVX NSCLC) | TGI (IGROV1 ovarian) | TGI (RPMI-8226 leukemia) | TGI (MALME-3M melanoma) | TGI (SNB-19 CNS) | TGI (HCT-116 colon) | TGI (HCC-2998 colon) | TGI (UACC-62 melanoma) | TGI (UACC-257 melanoma) | TGI (LOX IMVI melanoma)

CO[C@H](c1ccccc1)[C@H](C)N(C)c1ccc2ccccc2c1C1=NC(C)(C)CO1
39.8 µM: TGI (RXF-631 renal)
19.4 µM: TGI (NCI-H522 lung)
30.7 µM: TGI (OVCAR-3 ovarian)
36.4 µM: TGI (ACHN renal)
40.2 µM: TGI (KM12 colon)
48.9 µM: TGI (CCRF-CEM leukemia)
61.3 µM: TGI (HL-60(TB) leukemia)
27.6 µM: TGI (RXF 393 renal)
36 µM: TGI (HOP-62 NSCLC)
31 µM: TGI (NCI-H23 lung)
33.5 µM: TGI (XF 498 CNS)
40.9 µM: TGI (COLO 205 colon)
35.2 µM: TGI (A549 NSCLC)
53.2 µM: TGI (RPMI-8226 leukemia)
44.2 µM: TGI (EKVX NSCLC)
88.5 µM: TGI (K-562 leukemia)
32.4 µM: TGI (SNB-75 CNS)
25.1 µM: TGI (HT29 colon)
50.1 µM: TGI (SR leukemia)
39.3 µM: TGI (MOLT-4 leukemia)
30.6 µM: TGI (HOP-92 NSCLC) | TGI (UACC-257 melanoma)
61.8 µM: TGI (TK-10 renal)
84.7 µM: TGI (SNB-19 CNS)
31.9 µM: TGI (HOP-18 NSCLC)
27.4 µM: TGI (KM20L2 colon)
29.9 µM: TGI (SF-539 CNS)
26.7 µM: TGI (OVCAR-8 ovarian)
33.4 µM: TGI (SW-620 colon)
30.5 µM: TGI (U251 CNS)
33 µM: TGI (NCI-H460 lung) | TGI (MALME-3M melanoma)
31.8 µM: TGI (DLD-1 colon)
33.2 µM: TGI (SN12C renal)
33.3 µM: TGI (SK-OV-3 ovarian)
30.8 µM: TGI (SF-295 CNS)
> 100 µM: TGI (SK-MEL-5 melanoma) | TGI (IGROV1 ovarian) | TGI (UACC-62 melanoma)
34 µM: TGI (SK-MEL-28 melanoma)
29.7 µM: TGI (SK-MEL-2 melanoma) | TGI (HCT-15 colon)
49.6 µM: TGI (LXFL 529 NSCLC)
30.1 µM: TGI (786-0 renal)
34.8 µM: TGI (NCI-H226 lung)
34.6 µM: TGI (HCT-116 colon)
36.6 µM: TGI (M19-MEL melanoma)
27.9 µM: TGI (UO-31 renal)
39.2 µM: TGI (DMS 273 small cell lung)
33.6 µM: TGI (M14 melanoma)
36.1 µM: TGI (SF-268 CNS)
33.7 µM: TGI (DMS 114 small cell lung)

C[C@]12CCCC(=O)C1C[C@H](C(=O)O)CC2 (some centres undefined)
> 100 µM: TGI (SK-OV-3 ovarian) | TGI (DLD-1 colon) | TGI (SK-MEL-2 melanoma) | TGI (A498 renal) | TGI (UO-31 renal) | TGI (RXF-631 renal) | TGI (OVCAR-5 ovarian) | TGI (OVCAR-4 ovarian) | TGI (A549 NSCLC) | TGI (TK-10 renal) | TGI (KM20L2 colon) | TGI (M19-MEL melanoma) | TGI (CCRF-CEM leukemia) | TGI (K-562 leukemia) | TGI (COLO 205 colon) | TGI (MOLT-4 leukemia) | TGI (NCI-H522 lung) | TGI (HCT-15 colon) | TGI (HOP-62 NSCLC) | TGI (DMS 114 small cell lung) | TGI (HOP-92 NSCLC) | TGI (SF-295 CNS) | TGI (ACHN renal) | TGI (SK-MEL-28 melanoma) | TGI (M14 melanoma) | TGI (NCI-H226 lung) | TGI (LXFL 529 NSCLC) | TGI (OVCAR-8 ovarian) | TGI (NCI-H460 lung) | TGI (CAKI-1 renal) | TGI (XF 498 CNS) | TGI (DMS 273 small cell lung) | TGI (786-0 renal) | TGI (U251 CNS) | TGI (HOP-18 NSCLC) | TGI (SR leukemia) | TGI (OVCAR-3 ovarian) | TGI (SNB-75 CNS) | TGI (HL-60(TB) leukemia) | TGI (KM12 colon) | TGI (SW-620 colon) | TGI (SN12C renal) | TGI (NCI-H23 lung) | TGI (HT29 colon) | TGI (SF-539 CNS) | TGI (IGROV1 ovarian) | TGI (RPMI-8226 leukemia) | TGI (MALME-3M melanoma) | TGI (SNB-19 CNS) | TGI (HCT-116 colon) | TGI (SF-268 CNS) | TGI (HCC-2998 colon) | TGI (UACC-62 melanoma) | TGI (UACC-257 melanoma) | TGI (LOX IMVI melanoma)
